Data reported in ChEMBL document CHEMBL4627392, “Streptomyces albogriseolus SY67903 Produces Eunicellin Diterpenoids Structurally Similar to Terpenes of the Gorgonian Muricella sibogae, the Bacterial Source” (J Nat Prod, 2020).
Active and inactive are the calls of the source. The rule behind the calls is not given here.

Columns and labels:
Type in all cases: functional, cell-based
MDA-MB-231 = assay: Cytotoxicity against human MDA-MB-231 cells after 44 hrs by MTT assay; settings: MDA-MB-231, 44 h
MCF7 = assay: Cytotoxicity against human MCF7 cells after 44 hrs by MTT assay; settings: MCF7, 44 h
NCI-H292 = assay: Cytotoxicity against human NCI-H292 cells after 44 hrs by MTT assay
HCT-116 = assay: Cytotoxicity against human HCT116 cells after 44 hrs by MTT assay
HepG2 = assay: Cytotoxicity against human HepG2 cells after 44 hrs by MTT assay
A549 = assay: Cytotoxicity against human A549 cells after 44 hrs by MTT assay

Compound | IC50 (MDA-MB-231) | IC50 (MCF7) | Activity (NCI-H292) | Activity (HCT-116) | Activity (HepG2) | Activity (A549) | IC50 (NCI-H292; NCI-H292, 44 h) | IC50 (HCT-116; HCT-116, 44 h) | IC50 (HepG2; HepG2, 44 h) | IC50 (A549; A549, 44 h)
C=C1CCC(=C(C)C)[C@H]2/C=C(/C(=O)OC)CC/C=C(\C(=O)O)[C@H](O)C[C@H]12 | 8.6 µM | 5.3 µM | Active | Active | Active | Active | – | – | – | –
C=C1CC[C@@H](C(C)C)[C@H]2/C=C(/C(=O)OC)CC/C=C(\C(=O)O)[C@H](O)C[C@H]12 | > 100 µM | > 100 µM | – | – | – | – | > 100 µM | > 100 µM | > 100 µM | > 100 µM
